From paper PMC4505863 (ACS Chemical Neuroscience, 2014)
Entries after “also recorded” stand apart in the source; their conditions may differ.

How the values were obtained:
[1] = molecular target: 5-HT2B (Homo sapiens, UniProt P41595); assay: PDSP screening affinity 5-HT2B; format: binding
[2] = molecular target: 5-HT6 (Homo sapiens, UniProt P50406); assay: PDSP screening affinity 5-HT6; format: binding; conditions: 5-HT6 affinity
[3] = molecular target: T1, h5-HT2C (Homo sapiens, UniProt P28335); assay: Ca2+ mobilization assay; format: cell-based; conditions: for Emax: HEK293, read-out: h5HT2C Emax; for EC50: h5HT2C EC50, Ca2+ mobilization
T1 sequence (P28335 33-458): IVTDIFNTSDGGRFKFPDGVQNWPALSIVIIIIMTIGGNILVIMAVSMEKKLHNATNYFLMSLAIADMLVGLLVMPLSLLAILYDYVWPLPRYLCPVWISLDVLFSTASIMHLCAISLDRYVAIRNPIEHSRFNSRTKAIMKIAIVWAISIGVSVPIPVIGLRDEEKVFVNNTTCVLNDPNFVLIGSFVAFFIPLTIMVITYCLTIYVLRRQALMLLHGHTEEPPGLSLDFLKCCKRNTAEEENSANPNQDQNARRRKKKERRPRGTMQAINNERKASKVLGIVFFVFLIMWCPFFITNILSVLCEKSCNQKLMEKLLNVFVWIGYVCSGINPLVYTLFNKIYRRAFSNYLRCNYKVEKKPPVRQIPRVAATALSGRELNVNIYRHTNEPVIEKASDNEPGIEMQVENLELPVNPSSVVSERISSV

[4] = molecular target: 5-ht5a (Homo sapiens, UniProt P47898); assay: PDSP screening affinity 5-ht5a; format: binding
[5] = molecular target: h5-HT2B (Homo sapiens, UniProt P41595); assay: Ca2+ mobilization assay; format: cell-based; conditions: for Emax: HEK293, read-out: h5-HT2B Emax
[6] = molecular target: T2, 5-HT2A receptor (Homo sapiens, UniProt P28223); assay: h5-HT2A affinity, antagonist radioligand [3H]ketanserin; format: binding
[7] = molecular target: T3, 5-HT3 (Homo sapiens, UniProt P46098); assay: PDSP screening affinity 5-HT3; format: binding
T3 sequence (P46098 24-478): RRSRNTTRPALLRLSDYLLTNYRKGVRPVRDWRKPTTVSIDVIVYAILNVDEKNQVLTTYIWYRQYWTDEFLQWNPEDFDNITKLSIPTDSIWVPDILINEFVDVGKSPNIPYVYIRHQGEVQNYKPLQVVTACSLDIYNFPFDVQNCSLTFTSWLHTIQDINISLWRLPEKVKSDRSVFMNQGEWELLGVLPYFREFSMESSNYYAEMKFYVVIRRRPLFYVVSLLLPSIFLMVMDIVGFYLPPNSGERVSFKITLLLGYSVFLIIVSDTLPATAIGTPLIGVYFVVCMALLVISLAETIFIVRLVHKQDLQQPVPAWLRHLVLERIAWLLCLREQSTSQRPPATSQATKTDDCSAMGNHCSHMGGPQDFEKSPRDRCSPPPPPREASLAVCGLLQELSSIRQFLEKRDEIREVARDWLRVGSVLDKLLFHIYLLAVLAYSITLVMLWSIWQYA

[8] = test system: Male C57BL/6J mice; assay: Mouse head twitch response; conditions: for activity in the HTR assay (active / inactive): doses up to 30 mg/kg
[9] = molecular target: 5-HT7 (Homo sapiens, UniProt P34969); assay: PDSP screening affinity 5-HT7; format: binding
[10] = molecular target: h5-HT2A (Homo sapiens, UniProt P28223); assay: Ca2+ mobilization assay; format: cell-based; conditions: for Emax: HEK293, read-out: h5-HT2A Emax, percentage of the maximum response to 5-HT
[11] = molecular target: T2, 5-HT2A receptor; assay: h5-HT2A affinity, agonist radioligand [125I]DOI; format: binding
[12] = molecular target: T4, 5-HT1A (Homo sapiens, UniProt P08908); assay: PDSP screening affinity 5-HT1A; format: binding
T4 sequence (P08908 1-422): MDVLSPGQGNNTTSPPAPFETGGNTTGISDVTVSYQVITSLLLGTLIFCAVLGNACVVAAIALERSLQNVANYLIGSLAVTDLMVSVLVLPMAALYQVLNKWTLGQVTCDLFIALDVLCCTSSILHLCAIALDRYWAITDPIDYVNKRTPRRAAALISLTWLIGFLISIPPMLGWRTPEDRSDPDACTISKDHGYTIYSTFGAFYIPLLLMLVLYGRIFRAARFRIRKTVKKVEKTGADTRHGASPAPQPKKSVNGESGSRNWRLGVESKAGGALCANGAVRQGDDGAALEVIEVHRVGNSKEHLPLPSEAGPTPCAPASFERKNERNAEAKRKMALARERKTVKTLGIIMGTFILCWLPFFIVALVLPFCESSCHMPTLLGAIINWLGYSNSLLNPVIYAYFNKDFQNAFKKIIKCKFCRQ

[13] = molecular target: 5-ht1e (Homo sapiens, UniProt P28566); assay: PDSP screening affinity 5-ht1e; format: binding
[14] = molecular target: T5, human 5-HT2C receptor (Homo sapiens, UniProt P28335); assay: h5-HT2C affinity, agonist radioligand [125I]DOI; format: binding
T5 sequence (P28335 33-458): T1 sequence (P28335 33-458)

[15] = molecular target: 5-HT1D (Homo sapiens, UniProt P28221); assay: PDSP screening affinity 5-HT1D; format: binding
[16] = molecular target: r5-HT2A (Rattus norvegicus, UniProt P14842); assay: Ca2+ mobilization assay; format: cell-based; conditions: for Emax: read-out: r5-HT2A Emax, percentage of the maximum response to 5-HT
[17] = molecular target: T6, r5-HT2C (Rattus norvegicus, UniProt P08909); assay: Ca2+ mobilization assay; format: cell-based; conditions: for Emax: read-out: r5-HT2C Emax
T6 sequence (P08909 33-460): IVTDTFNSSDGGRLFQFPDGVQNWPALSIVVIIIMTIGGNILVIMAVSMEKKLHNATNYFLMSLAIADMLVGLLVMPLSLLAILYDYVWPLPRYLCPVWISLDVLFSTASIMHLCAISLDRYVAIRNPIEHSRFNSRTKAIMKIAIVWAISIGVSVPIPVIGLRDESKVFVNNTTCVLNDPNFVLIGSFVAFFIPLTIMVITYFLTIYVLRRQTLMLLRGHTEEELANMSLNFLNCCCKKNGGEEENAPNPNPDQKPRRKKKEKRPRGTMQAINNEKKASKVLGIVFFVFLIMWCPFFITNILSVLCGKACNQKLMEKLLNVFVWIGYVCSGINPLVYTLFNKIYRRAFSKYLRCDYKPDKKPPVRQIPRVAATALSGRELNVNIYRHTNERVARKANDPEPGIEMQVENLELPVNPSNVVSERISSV

[18] = molecular target: 5-HT1B (Homo sapiens, UniProt P28222); assay: PDSP screening affinity 5-HT1B; format: binding; conditions: 5-HT1B affinity
[19] = molecular target: T5, human 5-HT2C receptor; assay: h5-HT2C affinity, antagonist radioligand [3H]mesulergine; format: binding
[20] = h5-HT2B EC50, Ca2+ mobilization
[21] = h5-HT2B pEC50 ± SEM, Ca2+ mobilization, NA = not active, Emax ≤ 15%
[22] = r5-HT2A EC50, Ca2+ mobilization
[23] = r5-HT2C pEC50 ± SEM, Ca2+ mobilization
[24] = r5-HT2C EC50, Ca2+ mobilization

5-HT7, sequence (P34969 whole entry): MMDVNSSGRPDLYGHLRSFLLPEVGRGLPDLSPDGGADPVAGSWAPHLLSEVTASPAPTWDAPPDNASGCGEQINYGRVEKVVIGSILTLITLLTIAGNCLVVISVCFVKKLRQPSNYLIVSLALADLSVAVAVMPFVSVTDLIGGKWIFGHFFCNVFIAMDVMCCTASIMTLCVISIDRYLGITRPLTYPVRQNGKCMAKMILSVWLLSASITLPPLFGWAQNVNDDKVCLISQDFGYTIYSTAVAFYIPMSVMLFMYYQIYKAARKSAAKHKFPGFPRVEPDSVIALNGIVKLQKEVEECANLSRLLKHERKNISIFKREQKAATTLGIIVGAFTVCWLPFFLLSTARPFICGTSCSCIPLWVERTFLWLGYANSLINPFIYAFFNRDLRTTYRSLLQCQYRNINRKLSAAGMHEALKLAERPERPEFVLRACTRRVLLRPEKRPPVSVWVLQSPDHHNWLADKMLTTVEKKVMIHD
T2 sequence (P28223 whole entry): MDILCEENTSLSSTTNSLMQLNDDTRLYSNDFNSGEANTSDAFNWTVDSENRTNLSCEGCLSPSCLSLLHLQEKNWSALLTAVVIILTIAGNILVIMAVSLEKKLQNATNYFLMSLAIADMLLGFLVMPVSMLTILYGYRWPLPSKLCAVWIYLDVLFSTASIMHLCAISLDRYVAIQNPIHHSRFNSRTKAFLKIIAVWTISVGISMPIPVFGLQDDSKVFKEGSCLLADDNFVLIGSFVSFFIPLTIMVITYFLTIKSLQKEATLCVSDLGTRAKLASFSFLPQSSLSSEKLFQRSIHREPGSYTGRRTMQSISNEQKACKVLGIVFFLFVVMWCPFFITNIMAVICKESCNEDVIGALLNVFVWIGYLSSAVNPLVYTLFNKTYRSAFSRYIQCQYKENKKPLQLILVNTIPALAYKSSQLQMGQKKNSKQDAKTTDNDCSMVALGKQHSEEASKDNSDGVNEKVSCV
h5-HT2A, sequence (P28223 whole entry): as above
5-HT1D, sequence (P28221 whole entry): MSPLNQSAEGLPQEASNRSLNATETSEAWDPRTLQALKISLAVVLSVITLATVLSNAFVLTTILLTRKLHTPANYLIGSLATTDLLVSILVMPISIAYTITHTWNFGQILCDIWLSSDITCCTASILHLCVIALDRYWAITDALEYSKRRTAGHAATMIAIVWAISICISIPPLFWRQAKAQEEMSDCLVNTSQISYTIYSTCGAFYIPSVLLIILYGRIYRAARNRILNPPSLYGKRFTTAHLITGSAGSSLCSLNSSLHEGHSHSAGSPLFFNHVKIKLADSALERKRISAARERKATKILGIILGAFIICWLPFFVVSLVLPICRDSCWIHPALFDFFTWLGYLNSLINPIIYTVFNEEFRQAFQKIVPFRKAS
5-HT1B, sequence (P28222 whole entry): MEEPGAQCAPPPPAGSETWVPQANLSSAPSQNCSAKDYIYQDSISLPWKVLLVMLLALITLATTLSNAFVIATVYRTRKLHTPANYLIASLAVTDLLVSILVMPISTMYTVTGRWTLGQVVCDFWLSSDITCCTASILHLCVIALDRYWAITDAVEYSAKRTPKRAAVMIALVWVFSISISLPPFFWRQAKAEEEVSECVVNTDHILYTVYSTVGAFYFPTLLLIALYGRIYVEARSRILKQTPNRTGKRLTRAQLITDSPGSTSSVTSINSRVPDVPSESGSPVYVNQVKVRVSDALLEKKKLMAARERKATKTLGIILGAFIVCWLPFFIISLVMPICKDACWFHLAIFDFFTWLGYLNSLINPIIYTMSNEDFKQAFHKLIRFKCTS
5-ht5a, sequence (P47898 whole entry): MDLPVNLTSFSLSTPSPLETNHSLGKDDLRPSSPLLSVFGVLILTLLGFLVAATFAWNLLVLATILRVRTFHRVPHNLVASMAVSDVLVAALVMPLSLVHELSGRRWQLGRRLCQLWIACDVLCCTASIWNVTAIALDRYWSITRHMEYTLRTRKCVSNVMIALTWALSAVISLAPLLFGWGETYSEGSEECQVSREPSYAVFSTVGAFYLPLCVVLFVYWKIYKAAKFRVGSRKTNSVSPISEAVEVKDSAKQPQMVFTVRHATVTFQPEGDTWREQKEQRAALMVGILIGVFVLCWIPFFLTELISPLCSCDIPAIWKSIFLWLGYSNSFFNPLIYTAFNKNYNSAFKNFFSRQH
5-ht1e, sequence (P28566 whole entry): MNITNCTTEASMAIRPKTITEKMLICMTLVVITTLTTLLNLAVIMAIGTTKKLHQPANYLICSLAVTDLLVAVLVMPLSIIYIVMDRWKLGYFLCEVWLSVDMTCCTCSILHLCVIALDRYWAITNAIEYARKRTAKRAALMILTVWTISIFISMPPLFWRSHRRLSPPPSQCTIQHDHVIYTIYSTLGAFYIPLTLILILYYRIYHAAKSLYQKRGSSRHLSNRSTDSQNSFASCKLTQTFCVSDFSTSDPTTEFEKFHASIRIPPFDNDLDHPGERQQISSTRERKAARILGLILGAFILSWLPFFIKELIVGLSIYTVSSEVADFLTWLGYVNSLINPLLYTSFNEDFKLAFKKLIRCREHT
r5-HT2A, sequence (P14842 whole entry): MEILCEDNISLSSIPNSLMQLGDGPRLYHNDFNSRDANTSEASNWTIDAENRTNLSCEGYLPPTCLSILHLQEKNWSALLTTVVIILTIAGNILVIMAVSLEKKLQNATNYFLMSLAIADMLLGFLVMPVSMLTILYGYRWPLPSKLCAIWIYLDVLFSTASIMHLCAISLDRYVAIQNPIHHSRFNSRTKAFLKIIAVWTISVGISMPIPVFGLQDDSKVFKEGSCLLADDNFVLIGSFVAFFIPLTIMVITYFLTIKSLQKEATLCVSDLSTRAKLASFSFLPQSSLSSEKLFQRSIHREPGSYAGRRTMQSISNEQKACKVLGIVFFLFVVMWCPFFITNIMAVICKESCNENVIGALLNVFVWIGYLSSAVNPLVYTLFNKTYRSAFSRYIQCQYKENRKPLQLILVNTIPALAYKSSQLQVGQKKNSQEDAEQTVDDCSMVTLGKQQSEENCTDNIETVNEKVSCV
5-HT6, sequence (P50406 whole entry): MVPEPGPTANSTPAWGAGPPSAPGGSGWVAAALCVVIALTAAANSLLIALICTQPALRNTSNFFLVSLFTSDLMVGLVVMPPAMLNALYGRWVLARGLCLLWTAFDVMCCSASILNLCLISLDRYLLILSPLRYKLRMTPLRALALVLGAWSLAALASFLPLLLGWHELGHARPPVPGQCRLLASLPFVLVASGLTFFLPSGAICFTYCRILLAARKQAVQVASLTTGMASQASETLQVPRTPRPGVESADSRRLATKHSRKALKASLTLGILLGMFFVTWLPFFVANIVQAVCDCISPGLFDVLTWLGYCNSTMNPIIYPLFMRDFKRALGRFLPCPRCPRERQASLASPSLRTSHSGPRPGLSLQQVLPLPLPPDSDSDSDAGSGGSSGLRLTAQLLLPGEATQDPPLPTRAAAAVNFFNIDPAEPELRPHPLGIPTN
5-HT2B, sequence (P41595 whole entry): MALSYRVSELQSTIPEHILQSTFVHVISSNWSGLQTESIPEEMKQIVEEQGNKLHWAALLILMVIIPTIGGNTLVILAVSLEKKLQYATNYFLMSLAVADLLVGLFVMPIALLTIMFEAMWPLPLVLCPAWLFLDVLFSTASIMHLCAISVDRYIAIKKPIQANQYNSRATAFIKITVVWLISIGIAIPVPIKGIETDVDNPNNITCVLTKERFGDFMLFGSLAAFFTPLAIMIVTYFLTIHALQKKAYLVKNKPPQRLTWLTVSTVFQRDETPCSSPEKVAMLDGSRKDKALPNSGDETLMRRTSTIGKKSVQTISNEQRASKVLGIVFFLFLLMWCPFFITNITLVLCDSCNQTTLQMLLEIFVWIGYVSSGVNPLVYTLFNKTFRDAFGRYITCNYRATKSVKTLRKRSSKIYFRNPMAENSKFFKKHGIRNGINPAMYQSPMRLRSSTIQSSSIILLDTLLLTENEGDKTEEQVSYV
h5-HT2B, sequence (P41595 whole entry): as above

| Structure (SMILES) | Ki ([1]; 5-HT2B pKi ± SEM) [nM] | Ki [2] [nM] | Emax [3] [%] | Ki ([4]; 5-ht5a affinity) [nM] | Emax [5] [%] | Ki [6] [nM] | Ki [7] [nM] | activity in the HTR assay (active / inactive) ([8]; SC) | Ki ([9]; 5-HT7 affinity) [nM] | EC50 [10] [nM] | Emax [10] [%] | Ki [11] [nM] | Ki ([12]; 5-HT1A affinity) [nM] | Ki [13] [nM] | Ki [14] [nM] | Ki [15] [nM] | EC50 [16, 22] [nM] | Emax [17] [%] | Ki [18] [nM] | Ki [19] [nM] | further results |
| --- | --- | --- | --- | --- | --- | --- | --- | --- | --- | --- | --- | --- | --- | --- | --- | --- | --- | --- | --- | --- | --- |
| COc1cc(CCNCc2cccc(Br)c2)c(OC)cc1I [Compound 4d, N-(3-Bromobenzyl)-2-(4-iodo-2,5-dimethoxyphenyl)ethan-1-amine] | 12.9 | 175 | 74 ± 5 | 1010 | 90 ± 2 | 3.98 | > 10000 | inactive | 355 | 17 | 87.5 ± 1.3 | 0.57 | 670 | 792 | 1.62 | 162 | 14 | 101 ± 2 | 1570 | 7.59 | Ki ([4]; 5-ht5a pKi ± SEM): 1000 nM; EC50 [5, 20]: 85 nM; EC50 [5, 21]: 89.1 nM; r5-HT2A Emax ([16]; percentage of the maximum response to 5-HT): 68.5 ± 0.9%; EC50 ([16]; r5-HT2A pEC50 ± SEM, Ca2+ mobilization): 15.8 nM; EC50 [17, 23]: 36.3 nM |
| COc1ccc2[nH]cc(CCNCc3ccccc3Br)c2c1 [Compound 5d, N-(2-Bromobenzyl)-2-(5-methoxy-1H-indol-3-yl)ethan-1-amine] | 24 | 203 | 94 ± 5 | > 10000 | ≤ 15 | 25.1 | 6170 | failed to induce the HTR; also recorded: inactive | 1090 | 30 | 74.7 ± 1.5 | 2.34 | 286 | > 10000 | 14.1 | 782 | 450 | 104 ± 3 | > 10000 | 100 | EC50 [3]: 439 nM; EC50 [5, 20]: 168 nM; selectivity h5-HT2A versus h5-HT2C, affinity at the [125I]-DOI-labeled receptors ([11]; agonist-labeled receptors): 6 fold; Emax [16]: 49.7 ± 1.2%; EC50 [17, 24]: 898 nM |
| COc1ccc(CNCCc2c[nH]c3ccc(OC)cc23)cc1 [Compound 5c, N-(4-Methoxybenzyl)-2-(5-methoxy-1H-indol-3-yl)ethan-1-amine] | 32.4 | 353 | 112 ± 5 | 2390 | 81 ± 1 | 69.2 | > 10000 | None of the phenethylamines or tryptamines with 4-substituted N-benzyl groups, 4b, 4e, 5c, or 5f, was active | 37 | 42 | 84.1 ± 1.3 | 10.5 | 76 | > 10000 | 14.1 | 161 | 190 | 102 ± 2 | 1060 | 126 | Ki ([1]; 5-HT2B affinity): 33 nM; EC50 [3]: 75.1 nM; EC50 [5, 21]: 22.9 nM; Ki ([9]; 5-HT7 pKi ± SEM): 36.3 nM; Emax [16]: 75 ± 1.3%; EC50 [17, 23]: 18.6 nM |
| COc1cccc(CNCCc2c[nH]c3ccc(OC)cc23)c1 [Compound 5b, N-(3-Methoxybenzyl)-2-(5-methoxy-1H-indol-3-yl)ethan-1-amine] | – | 25 | 65 ± 5 | 1260 | ≤ 15 | 7.76 | > 10000 | active | 406 | 6.2 | 70 ± 1 | 1.05 | 335 | > 10000 | 5.89 | 334 | 34 | 102 ± 2 | > 10000 | 38 | Ki ([1]; 5-HT2B affinity): 2.5 nM; EC50 [3]: 178 nM; EC50 [5, 20]: 949 nM; max counts ([8]; HTR counts, SC): 9.2; ED50 ([8]; Mus musculus, sc, read-out: ED50 mg/kg (95% CI), mouse head twitch): 3.28 mg/kg; active doses ([8]; SC, mouse head twitch): 10 mg/kg; magnitude of peak effect × vehicle ([8]; SC, mouse head twitch): 3.7 × vehicle; maximally effective dose ([8]; SC, mouse head twitch): 10 mg/kg; HTR at 30 mg/kg ([8]; biphasic bell-shaped dose–response, 30 mg/kg SC): inactive; Ki ([12]; 5-HT1A pKi ± SEM): 331 nM; Emax [16]: 52.2 ± 0.9%; EC50 [17, 24]: 168 nM; EC50 [17, 23]: 166 nM |
| COc1ccc(CNCCc2cc(OC)c(I)cc2OC)cc1 [Compound 4b, N-(4-Methoxybenzyl)-2-(4-iodo-2,5-dimethoxyphenyl)ethan-1-amine] | 16.6 | 75 | 50 ± 7 | 1020 | 38 ± 2 | 11.7 | > 10000 | None of the phenethylamines or tryptamines with 4-substituted N-benzyl groups, 4b, 4e, 5c, or 5f, was active | 1570 | 60 | 74.1 ± 0.8 | 0.7 | 1060 | 1280 | 3.63 | 325 | 50 | 97 ± 2 | 1590 | 14.1 | EC50 [3]: 43.2 nM; EC50 [5, 20]: 87 nM; Emax [16]: 53.8 ± 0.9%; EC50 [17, 24]: 132 nM |
